Test results reported in ChEMBL document CHEMBL5252587, “Structure-activity relationship study of antitrypanosomal analogues of gibbilimbol B using multivariate analysis and computation-aided drug design” (Bioorg Med Chem Lett, 2023).

Experiments:
Trypanosoma cruzi = assay: Antitrypanosomal activity against Trypanosoma cruzi trypomastigotes assessed as parasite growth inhibition; type: functional, organism-based
[1] = Selectivity index, ratio of CC50 for cytotoxicity against mouse NCTC Fibroblast cells assessed as inhibition of cell growth to EC50 for antitrypanosomal activity against Trypanosoma cruzi trypomastigotes assessed as parasite growth inhibition; type: toxicity, cell-based; details: read-out: Ratio CC50/EC50
Fibroblast = assay: Cytotoxicity against mouse NCTC Fibroblast cells assessed as inhibition of cell growth; type: functional
[2] = Trypanosoma cruzi, read-out: EC50

Row | Structure (SMILES) | EC50 (Trypanosoma cruzi; [2]) | EC50 (Trypanosoma cruzi) | selectivity ratio [1] | CC50 (Fibroblast)
1 | CCCCC/C=C/CCCOC(=O)c1ccc(O)cc1 | 75.3 µM | – | > 2.7 | > 200 µM
2 | CCCCC(CC)COC(=O)c1ccc(F)cc1 (centres undefined) | 42.4 µM | – | > 4.7 | > 200 µM
3 | O=C(Cn1ccnc1[N+](=O)[O-])NCc1ccccc1 [BENZNIDAZOLE] | – | – | > 16 | > 200 µM
4 | CCC/C=C/CCCNC(=O)c1ccc(C(C)(C)C)cc1 | 7.7 µM | – | > 26 | > 200 µM
5 | CCCCC(CC)CNC(=O)c1ccc(F)cc1 (centres undefined) | 36.6 µM | – | 4.3 | 157 µM
6 | CCCCC(CC)CNC(=O)c1ccc(C)cc1 (centres undefined) | 21.3 µM | – | > 9.4 | > 200 µM
7 | CCC/C=C/CCCOC(=O)c1ccccc1 | 77.4 µM | – | > 2.6 | > 200 µM
8 | CCCCC(CC)COC(=O)c1ccc(C(C)(C)C)cc1 (centres undefined) | – | Not Active | – | > 200 µM
9 | CCCCC(CC)COC(=O)c1ccc(Cl)cc1 (centres undefined) | 15.6 µM | – | > 12.8 | > 200 µM
10 | CCC/C=C/CCCOC(=O)c1ccc(C(C)(C)C)cc1 | – | Not Active | – | > 200 µM
11 | CCC/C=C/CCCNC(=O)c1ccccc1 | 71.3 µM | – | > 2.8 | > 200 µM
12 | CCC/C=C/CCCOC(=O)c1ccc(F)cc1 | 20.8 µM | – | > 9.6 | > 200 µM

The next lines start with results.

Row | EC50 (Trypanosoma cruzi; [2]) | EC50 (Trypanosoma cruzi) | Structure (SMILES) | selectivity ratio [1] | CC50 (Fibroblast)
13 | 25.9 µM | – | CCC/C=C/CCCNC(=O)c1ccc(OC)cc1 | > 7.7 | > 200 µM
14 | 71.4 µM | – | CCC/C=C/CCCNC(=O)c1ccc(F)cc1 | > 2.8 | > 200 µM
15 | 11.7 µM | – | CCC/C=C/CCCOC(=O)c1ccc(C)cc1 | > 17.1 | > 200 µM
16 | 15.6 µM | – | CCC/C=C/CCCOC(=O)c1ccc(OC)cc1 | > 12.8 | > 200 µM
17 | 37.7 µM | – | CCC/C=C/CCCNC(=O)c1ccc(C)cc1 | > 5.3 | > 200 µM
18 | 5.6 µM | – | CCC/C=C/CCCOC(=O)c1ccc([N+](=O)[O-])cc1 | > 35.1 | > 200 µM
19 | 19.8 µM | – | CCC/C=C/CCCOC(=O)c1ccc(Cl)cc1 | > 10.1 | > 200 µM
20 | 20.7 µM | – | CCCCC(CC)CNC(=O)c1ccc(Cl)cc1 (centres undefined) | > 9.7 | > 200 µM
21 | 28.7 µM | – | CCC/C=C/CCCNC(=O)c1ccc(Cl)cc1 | > 7 | > 200 µM
22 | 24.4 µM | – | CCC/C=C/CCCNC(=O)c1ccc([N+](=O)[O-])cc1 | 6.5 | 158 µM
23 | 19.7 µM | – | CCCCC(CC)COC(=O)c1ccc(C)cc1 (centres undefined) | > 10.2 | > 200 µM
24 | – | Not Active | CCCCC(CC)CNC(=O)c1ccc(C(C)(C)C)cc1 (centres undefined) | – | > 200 µM
25 | 11.5 µM | – | CCCCC(CC)COC(=O)c1ccc([N+](=O)[O-])cc1 (centres undefined) | > 17.4 | > 200 µM
26 | 22 µM | – | CCCCC(CC)CNC(=O)c1ccc([N+](=O)[O-])cc1 (centres undefined) | > 9.1 | > 200 µM
